One test has as its target T1, CDK9 (Homo sapiens, UniProt P50750).
T1 construct: endogenous in cells; host or cells: MDA-MB-231
The test is described as follows: CDK protein degradation activity (Western blotting), CDK9. It is filed as cell-based. The settings on record: MDA-MB-231 cells, 16 hours, Western blot. In outline:
(§1)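 Breast cancer line MDA-MB-231, 16 h compound treatment (100 nM–10 μM final, three doses). Immunoblot quantification of CDK2/CDK9 versus tubulin, normalized to DMSO control.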
(In general: In western blotting, separated proteins are transferred to a membrane and probed.)

For the next test, the target named is T2, CDK2 (Homo sapiens, UniProt P24941).
T2 construct: endogenous in cells; host or cells: MDA-MB-231
In words: CDK protein degradation activity (Western blotting), CDK2. Type of test: cell-based. Particulars: MDA-MB-231 cells, 16 hours, Western blot. In outline:
as §1

T1 sequence (P50750 whole entry): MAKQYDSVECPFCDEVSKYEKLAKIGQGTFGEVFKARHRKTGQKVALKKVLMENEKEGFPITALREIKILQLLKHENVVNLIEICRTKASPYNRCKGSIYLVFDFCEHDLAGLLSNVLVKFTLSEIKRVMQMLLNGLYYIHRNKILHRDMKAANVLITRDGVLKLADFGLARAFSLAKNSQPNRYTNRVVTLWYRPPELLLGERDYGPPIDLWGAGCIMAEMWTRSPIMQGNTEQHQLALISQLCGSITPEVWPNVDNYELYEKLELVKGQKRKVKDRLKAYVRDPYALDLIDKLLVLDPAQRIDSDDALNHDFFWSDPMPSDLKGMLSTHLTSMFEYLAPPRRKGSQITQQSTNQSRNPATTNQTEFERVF

For `O=C1CC[C@H](N2C(=O)c3ccc(N4CCC(C(=O)N5CCN(C6CCN(c7ccc(Nc8ncnc9c8ncn9C8CC(NC(=O)Cc9ccccc9)C8)cc7)CC6)CC5)CC4)cc3C2=O)C(=O)N1` (stereo partly drawn) [Compound 365, N-((1s,3s)-3-(6-((4-(4-(4-(1-(2-(2,6-dioxopiperidin-3-yl)-1,3-dioxoisoindolin-5-yl)piperidin-4-carbonyl)piperazin-1-yl)piperidin-1-yl)phenyl)amino)-9H-purin-9-yl)cyclobutyl)-2-phenylacetamide], on CDK9, the “Enzyme degradation CDK9 (% remaining) @ 0.1 μM” value was 30%, the “Enzyme degradation CDK9 (% remaining) @ 1 μM” value is 10% and the “Enzyme degradation CDK9 (% remaining) @ 10 μM” value came to 10%. In addition, at CDK2, the “Enzyme degradation CDK2 (% remaining) @ 0.1 μM” value was 60/60/60%, the “Enzyme degradation CDK2 (% remaining) @ 1 μM” value is listed as 60/60/60% and the “Enzyme degradation CDK2 (% remaining) @ 10 μM” value is on record as 60/60/60%.

As for `O=C1CC[C@H](N2C(=O)c3ccc(N4CCC(C(=O)N5CCN(CCCC6CCN(c7ccc(Nc8ncnc9c8ncn9[C@H]8C[C@@H](NC(=O)Cc9ccccc9)C8)cc7)CC6)CC5)CC4)cc3C2=O)C(=O)N1` [Compound 367, N-((1s,3s)-3-(6-((4-(4-(3-(4-(1-(2-(2,6-dioxopiperidin-3-yl)-1,3-dioxoisoindolin-5-yl)piperidin-4-carbonyl)piperazin-1-yl)propyl)piperidin-1-yl)phenyl)amino)-9H-purin-9-yl)cyclobutyl)-2-phenylacetamide], on CDK9, the “Enzyme degradation CDK9 (% remaining) @ 0.1 μM” value is recorded as 10%, the “Enzyme degradation CDK9 (% remaining) @ 1 μM” value amounted to 0% and the “Enzyme degradation CDK9 (% remaining) @ 10 μM” value was determined as 0%. On CDK2, the “Enzyme degradation CDK2 (% remaining) @ 0.1 μM” value stood at 10%, the “Enzyme degradation CDK2 (% remaining) @ 1 μM” value came out at 0% and the “Enzyme degradation CDK2 (% remaining) @ 10 μM” value was found to be 0%.

For `O=C1CC[C@H](n2nnc3ccc(N4CCN(CC5CCN(c6ccc(Nc7ncnc8c7ncn8C7CC(NC(=O)c8c(Cl)cccc8Cl)C7)cc6)CC5)CC4)cc3c2=O)C(=O)N1` (stereo partly drawn) [Compound 370, 2,6-dichloro-N-((1s,3s)-3-(6-((4-(4-((4-(3-(2,6-dioxopiperidin-3-yl)-4-oxo-3,4-dihydrobenzo[d][1,2,3]triazin-6-yl)piperazin-1-yl)methyl)piperidin-1-yl)phenyl)amino)-9H-purin-9-yl)cyclobutyl)benzamide], on CDK9, the “Enzyme degradation CDK9 (% remaining) @ 0.1 μM” value is reported as 0/0/0%, the “Enzyme degradation CDK9 (% remaining) @ 1 μM” value is given as 0/0/0% and the “Enzyme degradation CDK9 (% remaining) @ 10 μM” value is recorded as 0/0/0%. Besides, on CDK2, the “Enzyme degradation CDK2 (% remaining) @ 0.1 μM” value was 0/0/0%, the “Enzyme degradation CDK2 (% remaining) @ 1 μM” value is on record as 0/0/0% and the “Enzyme degradation CDK2 (% remaining) @ 10 μM” value is on record as 0/0/0%.

In the case of `O=C1CC[C@H](n2nnc3ccc(N4CCC(CN5CCN(c6ccc(Nc7ncnc8c7ncn8C7CC(NC(=O)c8c(Cl)cccc8Cl)C7)cc6)CC5)CC4)cc3c2=O)C(=O)N1` (stereo partly drawn) [Compound 371, 2,6-dichloro-N-((1s,3s)-3-(6-((4-(4-((1-(3-(2,6-dioxopiperidin-3-yl)-4-oxo-3,4-dihydrobenzo[d][1,2,3]triazin-6-yl)piperidin-4-yl)methyl)piperazin-1-yl)phenyl)amino)-9H-purin-9-yl)cyclobutyl)benzamide], at CDK9, the “Enzyme degradation CDK9 (% remaining) @ 0.1 μM” value is on record as 0/0/0%, the “Enzyme degradation CDK9 (% remaining) @ 1 μM” value is reported as 0/0/0% and the “Enzyme degradation CDK9 (% remaining) @ 10 μM” value is listed as 0/0/0%. On CDK2, the “Enzyme degradation CDK2 (% remaining) @ 0.1 μM” value is 0/0/0%, the “Enzyme degradation CDK2 (% remaining) @ 1 μM” value was 0/0/0% and the “Enzyme degradation CDK2 (% remaining) @ 10 μM” value is listed as 0/0/0%.

Regarding `O=C1CC[C@H](N2C(=O)c3ccc(N4CC(C(=O)N5CCC(CCCN6CCN(c7ccc(Nc8ncnc9c8ncn9C8CC(NC(=O)Cc9ccccc9)C8)cc7)CC6)CC5)C4)cc3C2=O)C(=O)N1` (stereo partly drawn) [Compound 372, N-((1s,3s)-3-(6-((4-(4-(3-(1-(1-(2-(2,6-dioxopiperidin-3-yl)-1,3-dioxoisoindolin-5-yl)azetidin-3-carbonyl)piperidin-4-yl)propyl)piperazin-1-yl)phenyl)amino)-9H-purin-9-yl)cyclobutyl)-2-phenylacetamide], on CDK9, the “Enzyme degradation CDK9 (% remaining) @ 0.1 μM” value is given as 0/0/0%, the “Enzyme degradation CDK9 (% remaining) @ 1 μM” value was 0/0/0% and the “Enzyme degradation CDK9 (% remaining) @ 10 μM” value is on record as 0/0/0%. For the same compound, on CDK2, the “Enzyme degradation CDK2 (% remaining) @ 0.1 μM” value turned out to be 90%, the “Enzyme degradation CDK2 (% remaining) @ 1 μM” value worked out at 50% and the “Enzyme degradation CDK2 (% remaining) @ 10 μM” value was found to be 50%.

With `O=C1CC[C@H](N2C(=O)c3ccc(N4CC(C(=O)N5CCN(C6CN(c7ccc(Nc8ncnc9c8ncn9[C@H]8C[C@@H](NC(=O)Cc9ccccc9)C8)cc7)C6)CC5)C4)cc3C2=O)C(=O)N1` [Compound 373, N-((1s,3s)-3-(6-((4-(3-(4-(1-(2-(2,6-dioxopiperidin-3-yl)-1,3-dioxoisoindolin-5-yl)azetidin-3-carbonyl)piperazin-1-yl)azetidin-1-yl)phenyl)amino)-9H-purin-9-yl)cyclobutyl)-2-phenylacetamide], on CDK9, the “Enzyme degradation CDK9 (% remaining) @ 0.1 μM” value stood at 40%, the “Enzyme degradation CDK9 (% remaining) @ 1 μM” value turned out to be 20% and the “Enzyme degradation CDK9 (% remaining) @ 10 μM” value stood at 20%. Moreover, on CDK2, the “Enzyme degradation CDK2 (% remaining) @ 0.1 μM” value was 30/30/30%, the “Enzyme degradation CDK2 (% remaining) @ 1 μM” value is on record as 30/30/30% and the “Enzyme degradation CDK2 (% remaining) @ 10 μM” value was 30/30/30%.

With `O=C1CCC(N2C(=O)c3ccc(N4CC(C(=O)N5CCN(C6CN(c7ccc(Nc8ncnc9c8ncn9[C@H]8C[C@@H](NC(=O)Cc9ccccc9)C8)cc7)C6)CC5)C4)cc3C2=O)C(=O)N1` (stereo partly drawn) [Compound 374, N-((1s,3s)-3-(6-((4-(3-(4-(1-(2-(2,6-dioxopiperidin-3-yl)-1,3-dioxoisoindolin-5-yl)azetidin-3-carbonyl)piperazin-1-yl)azetidin-1-yl)phenyl)amino)-9H-purin-9-yl)cyclobutyl)-2-phenylacetamide], at CDK9, the “Enzyme degradation CDK9 (% remaining) @ 0.1 μM” value was 30%, the “Enzyme degradation CDK9 (% remaining) @ 1 μM” value worked out at 20% and the “Enzyme degradation CDK9 (% remaining) @ 10 μM” value was determined as 20%. Further, at CDK2, the “Enzyme degradation CDK2 (% remaining) @ 0.1 μM” value was 30%, the “Enzyme degradation CDK2 (% remaining) @ 1 μM” value amounted to 30% and the “Enzyme degradation CDK2 (% remaining) @ 10 μM” value is 50%.

On to `O=C1CC[C@H](N2C(=O)c3ccc(N4CC(CN5CCC(CCN6CCN(c7ccc(Nc8ncnc9c8ncn9[C@H]8C[C@@H](NC(=O)Cc9ccccc9)C8)cc7)CC6)CC5)C4)cc3C2=O)C(=O)N1` [Compound 375, N-((1s,3s)-3-(6-((4-(4-(2-(1-((1-(2-(2,6-dioxopiperidin-3-yl)-1,3-dioxoisoindolin-5-yl)azetidin-3-yl)methyl)piperidin-4-yl)ethyl)piperazin-1-yl)phenyl)amino)-9H-purin-9-yl)cyclobutyl)-2-phenylacetamide], for which, on CDK9, the “Enzyme degradation CDK9 (% remaining) @ 0.1 μM” value was 30%, the “Enzyme degradation CDK9 (% remaining) @ 1 μM” value was 10% and the “Enzyme degradation CDK9 (% remaining) @ 10 μM” value is recorded as 10%. Moreover, on CDK2, the “Enzyme degradation CDK2 (% remaining) @ 0.1 μM” value turned out to be 30%, the “Enzyme degradation CDK2 (% remaining) @ 1 μM” value is on record as 10% and the “Enzyme degradation CDK2 (% remaining) @ 10 μM” value turned out to be 10%.

In the case of `O=C1CC[C@H](N2C(=O)c3ccc(N4CCC(C(=O)N5CCC6(CC5)CC(N5CCN(c7ccc(Nc8ncnc9c8ncn9[C@H]8C[C@@H](NC(=O)c9c(Cl)cccc9Cl)C8)cc7)CC5)C6)CC4)cc3C2=O)C(=O)N1` [Compound 376, 2,6-dichloro-N-((1s,3s)-3-(6-((4-(4-(7-(1-(2-(2,6-dioxopiperidin-3-yl)-1,3-dioxoisoindolin-5-yl)piperidin-4-carbonyl)-7-azaspiro[3.5]nonan-2-yl)piperazin-1-yl)phenyl)amino)-9H-purin-9-yl)cyclobutyl)benzamide], at CDK9, the “Enzyme degradation CDK9 (% remaining) @ 0.1 μM” value is 10/10/10%, the “Enzyme degradation CDK9 (% remaining) @ 1 μM” value is given as 10/10/10% and the “Enzyme degradation CDK9 (% remaining) @ 10 μM” value was 10/10/10%. In addition, on CDK2, the “Enzyme degradation CDK2 (% remaining) @ 0.1 μM” value is 30/30/30%, the “Enzyme degradation CDK2 (% remaining) @ 1 μM” value was 30/30/30% and the “Enzyme degradation CDK2 (% remaining) @ 10 μM” value is on record as 30/30/30%.

Take `Cc1cccc(C(=O)N[C@H]2C[C@@H](n3cnc4c(Nc5ccc(N6CCN(CC7CCN(c8cc9c(cc8F)C(=O)N([C@H]8CCC(=O)NC8=O)C9=O)CC7)CC6)cc5)ncnc43)C2)n1` [Compound 377, N-((1s,3s)-3-(6-((4-(4-((1-(2-(2,6-dioxopiperidin-3-yl)-6-fluoro-1,3-dioxoisoindolin-5-yl)piperidin-4-yl)methyl)piperazin-1-yl)phenyl)amino)-9H-purin-9-yl)cyclobutyl)-6-methylpicolinamide]: on CDK9, the “Enzyme degradation CDK9 (% remaining) @ 0.1 μM” value is 0/0/0%, the “Enzyme degradation CDK9 (% remaining) @ 1 μM” value is 0/0/0% and the “Enzyme degradation CDK9 (% remaining) @ 10 μM” value is reported as 0/0/0%. For the same compound, on CDK2, the “Enzyme degradation CDK2 (% remaining) @ 0.1 μM” value stood at 20%, the “Enzyme degradation CDK2 (% remaining) @ 1 μM” value came out at 10% and the “Enzyme degradation CDK2 (% remaining) @ 10 μM” value is reported as 10%.

On to `Cc1cccc(C(=O)NC2CC(n3cnc4c(Nc5ccc(N6CCN(CC7CCN(c8ccc9nnn([C@H]%10CCC(=O)NC%10=O)c(=O)c9c8)CC7)CC6)cc5)ncnc43)C2)n1` (stereo partly drawn) [Compound 378, N-((1s,3s)-3-(6-((4-(4-((1-(3-(2,6-dioxopiperidin-3-yl)-4-oxo-3,4-dihydrobenzo[d][1,2,3]triazin-6-yl)piperidin-4-yl)methyl)piperazin-1-yl)phenyl)amino)-9H-purin-9-yl)cyclobutyl)-6-methylpicolinamide], for which, at CDK9, the “Enzyme degradation CDK9 (% remaining) @ 0.1 μM” value is reported as 0/0/0%, the “Enzyme degradation CDK9 (% remaining) @ 1 μM” value is 0/0/0% and the “Enzyme degradation CDK9 (% remaining) @ 10 μM” value is on record as 0/0/0%. On CDK2, the “Enzyme degradation CDK2 (% remaining) @ 0.1 μM” value is reported as 10/10/10%, the “Enzyme degradation CDK2 (% remaining) @ 1 μM” value was 10/10/10% and the “Enzyme degradation CDK2 (% remaining) @ 10 μM” value was 10/10/10%.
